{
  "source": "paper PMC3718762",
  "about": "“Differential Disruption of EWS-FLI1 Binding by DNA-Binding Agents” (PLoS ONE, 2013)",
  "key": {"EWS-FLI1": {"molecular_target": "EWS-FLI1", "assay": "AlphaScreen proximity assay, binding of recombinant EWS-FLI1 to cognate DNA oligo", "conditions": "for IC50: read-out: IC50 EWS-FLI1, disruption of recombinant EWS-FLI1 binding to DNA; for Disruption of EWS-FLI1 binding compared with p53 binding in the parallel assays: EWS-FLI1 versus p53"}, "p53": {"molecular_target": "T1, p53 (Homo sapiens, UniProt P04637)", "T1 construct": "made in house; host or cells: bacteria (pGex-6P-1-p53); plasmid was a gift from Dr. Guangchao Sui", "T1 sequence (P04637 whole entry, species assumed)": "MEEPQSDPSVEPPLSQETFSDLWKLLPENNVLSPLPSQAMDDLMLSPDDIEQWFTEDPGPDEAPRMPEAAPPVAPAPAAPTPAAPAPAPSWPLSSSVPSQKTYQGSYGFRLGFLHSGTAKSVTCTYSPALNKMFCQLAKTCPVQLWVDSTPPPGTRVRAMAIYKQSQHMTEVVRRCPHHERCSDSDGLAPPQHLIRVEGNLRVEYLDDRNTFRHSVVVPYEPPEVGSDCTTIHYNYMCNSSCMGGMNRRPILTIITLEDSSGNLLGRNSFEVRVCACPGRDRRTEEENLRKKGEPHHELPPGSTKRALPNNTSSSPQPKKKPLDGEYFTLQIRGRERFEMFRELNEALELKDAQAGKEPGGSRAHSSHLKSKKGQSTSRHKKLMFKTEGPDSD", "assay": "AlphaScreen proximity assay (counterscreen), binding of recombinant p53 to cognate DNA oligo", "source_text": "An AlphaScreen assay for binding of recombinant EWS-FLI1 to DNA was previously described. Briefly, recombinant EWS-FLI1 and p53 were synthesized in bacteria transformed with pGex-6P-1-EWS-FLI1 or pGex-6P-1-p53, and bound to AlphaScreen acceptor beads. A biotinylated oligonucleotide containing two copies of the EWS-FLI1 binding motif or p53 binding motifs was bound to AlphaScreen donor beads. For EWS-FLI1, the oligo sequence was: […]. The p53 binding oligo sequence was: […]. This assay was used to screen 5,200 compounds, as previously described. IC50 values were calculated with the GraphPad Prism software package.\nWe developed a homogeneous AlphaScreen assay to assess the binding of recombinant EWS-FLI1 to DNA [18]. A parallel assay assessing binding of p53 to DNA was used as a counterscreen. Briefly, in these proximity assays, recombinant GST-EWS-FLI1 or GST-p53 was bound to glutathione-conjugated AlphaScreen acceptor beads, and a synthetic biotinylated oligonucleotide (oligo) containing tandem EWS-FLI1 or p53 binding sites was bound to streptavidin-conjugated AlphaScreen donor beads. Binding of GST-EWS-FLI1 or GST-p53 to the cognate oligo allows singlet oxygen transfer from donor to acceptor beads when excited at 680 nm, with resulting light emission between 520–620 nm."}, "NR0B1 promoter": {"tested_on": "NR0B1 promoter", "assay": "NR0B1-Luc firefly luciferase reporter assay in A673 cells", "format": "cell-based, human", "conditions": "A673 cells, NR0B1-Luc versus UbC-RL", "source_text": "The NR0B1 promoter was amplified from human genomic DNA using the 5′ primer- […] and 3′ primer - […]. NR0B1 promoter amplicon was cloned into the NheI and HindIII sites in the pGL.3Basic vector. The 5′ primer-[…] was used to amplify a truncated NR0B1 promoter in which the entire EWS-FLI1 binding region (GGAA repeats) was deleted to construct pGL.3b-NR0B1del. All constructs were confirmed by sequencing. All other plasmids were previously described.\nEwing sarcoma A673 cells at 50% confluence in 100 mm dishes were transfected with both 5.8 µg of pGL.3b-NR0B1 and 0.2 µg of pGL.3b-Ubc-RL reporter plasmids as above. Eight hours post-transfection, cells were trypsinized and 600 ul (2×10^5) of cells were added to each well of 24 well plates. 5 µl of different concentration of compounds or DMSO control were added to each well. Each treatment was performed in triplicate. Cells were incubated for 16 hours, then cells were lysed in 100 µl of lysis buffer and 10 µl of cell lysate was used for the dual luciferase assay. Renilla luciferase activity was used as an internal control for normalization of nonspecific transcriptional inhibition or cytotoxic effects. Experiments were repeated three times. IC50 values were calculated using Prism (Graphpad).\nTo determine the effect of compounds on EWS-FLI1 activity in cells, we used a reporter assay comprised of the NR0B1 promoter, a prototypical EWS-FLI1-regulated gene, driving expression of firefly luciferase. Renilla luciferase driven by the Ubiquitin C promoter (UbC-RL) was used as an internal control. Confirming prior studies, the NR0B1 promoter was verified to be highly responsive to EWS-FLI1, whereas the UbC promoter activity was not subject to regulation by EWS-FLI1 (Figure S1)."}, "[1]": {"tested_on": "EWS-FLI1 downstream targets", "set-up": "method as in PMID 21403840, PMID 21653923", "conditions": "prior studies ref [11], [12]; cited from earlier work"}, "Ewing sarcoma cells": {"tested_on": "Ewing sarcoma cells", "set-up": "method as in PMID 21403840, PMID 21653923", "conditions": "prior studies ref [11], [12]; cited from earlier work"}, "[2]": {"conditions": "AlphaScreen, disruption of recombinant p53 binding to DNA, read-out: IC50 p53"}},
  "note": "Where a name gives a salt, the structure may show the parent alone. Read-outs that look alike come from different tables or passages of the source.",
  "data": [
    {"compound": "CCOc1ccc2c(c1)C(C)=CC(C)(C)N2", "note": "[Ethoxyqiun]", "values": [
      {"measurement": "IC50", "setting": "EWS-FLI1", "result": 464, "unit": "nM"},
      {"measurement": "IC50", "setting": "p53; [2]", "result": 484, "unit": "nM"}
    ]},
    {"compound": "Verteporfin", "values": [
      {"measurement": "IC50", "setting": "EWS-FLI1", "result": 342, "unit": "nM"}
    ]},
    {"compound": "CC(C)/N=c1\\cc2n(-c3ccc(Cl)cc3)c3ccccc3nc-2cc1Nc1ccc(Cl)cc1", "note": "[Clofazimine]", "values": [
      {"measurement": "IC50", "setting": "EWS-FLI1", "result": 202, "unit": "nM"},
      {"measurement": "IC50", "setting": "p53; [2]", "result": 203, "unit": "nM"}
    ]},
    {"compound": "CC(C)=CC[C@@H](O)C1=CC(=O)c2c(O)ccc(O)c2C1=O", "note": "[Shikonin]", "values": [
      {"measurement": "IC50", "setting": "EWS-FLI1", "result": 600, "unit": "nM"},
      {"measurement": "IC50", "setting": "p53", "result": 633, "unit": "nM"}
    ]},
    {"compound": "COc1cccc2c1C(=O)c1c(O)c3c(c(O)c1C2=O)C[C@@](O)(C(=O)CO)C[C@@H]3O[C@H]1C[C@H](N)[C@@H](O)[C@H](C)O1", "note": "[Epirubicin]", "values": [
      {"measurement": "IC50", "setting": "EWS-FLI1", "result": 42, "unit": "nM"},
      {"measurement": "Separation of inhibition of the NR0B1 and UbC reporters", "setting": "NR0B1 promoter", "result": "no separation"},
      {"measurement": "IC50", "setting": "p53", "result": 389, "unit": "nM"}
    ]},
    {"compound": "COc1cccc2c1C(=O)c1c(O)c3c(c(O)c1C2=O)C[C@@](O)(C(=O)CO)C[C@@H]3O[C@H]1C[C@H](N)[C@H](O)[C@H](C)O1", "note": "[Doxorubincin]", "values": [
      {"measurement": "Disruption of EWS-FLI1 binding compared with p53 binding in the parallel assays", "setting": "EWS-FLI1", "result": "disrupt both EWS-FLI1 and p53 binding similarly"},
      {"measurement": "IC50", "setting": "EWS-FLI1", "result": 344, "unit": "nM"},
      {"measurement": "Separation of inhibition of the NR0B1 and UbC reporters", "setting": "NR0B1 promoter", "result": "no separation"},
      {"measurement": "IC50", "setting": "p53", "result": 1220, "unit": "nM"}
    ]},
    {"compound": "COc1cc2c(cc1O)CCN[C@]21CS[C@@H]2c3c(OC(C)=O)c(C)c4c(c3[C@H](COC1=O)N1[C@@H]2[C@H]2c3c(cc(C)c(OC)c3O)C[C@@H]([C@@H]1O)N2C)OCO4", "note": "[ET-743, trabectedin]", "values": [
      {"measurement": "Expression of EWS-FLI1 downstream targets", "setting": "[1]", "result": "reduced"},
      {"measurement": "Growth of Ewing sarcoma cells", "setting": "Ewing sarcoma cells", "result": "inhibited"}
    ]},
    {"compound": "CCOc1ccc(C=C2SC(=O)N(CCN)C2=O)cc1.Cl", "note": "[Erk inihibitor]", "values": [
      {"measurement": "IC50", "setting": "EWS-FLI1", "result": 3350, "unit": "nM"},
      {"measurement": "Separation of inhibition of the NR0B1 and UbC reporters", "setting": "NR0B1 promoter", "result": "modulated the NR0B1 and UbC reporters equally"},
      {"measurement": "IC50", "setting": "p53; [2]", "result": "> 10000", "unit": "nM"}
    ]},
    {"compound": "CCN(CC)CCCC(C)Nc1c2ccc(Cl)cc2nc2ccc(OC)cc12", "note": "(stereo not drawn) [Quinacrine HCl]", "values": [
      {"measurement": "IC50", "setting": "EWS-FLI1", "result": 7030, "unit": "nM"},
      {"measurement": "IC50", "setting": "p53; [2]", "result": 6060, "unit": "nM"}
    ]},
    {"compound": "CN(C)c1ccc(/C=C2\\C(=O)Nc3ccccc32)cc1", "note": "[DMBI]", "values": [
      {"measurement": "IC50", "setting": "EWS-FLI1", "result": 3370, "unit": "nM"},
      {"measurement": "IC50", "setting": "p53; [2]", "result": 3780, "unit": "nM"}
    ]},
    {"compound": "Cn1c2ccccc2c2c3c(c4c5ccccc5n(CCC#N)c4c21)CNC3=O", "note": "[Go 6976]", "values": [
      {"measurement": "IC50", "setting": "p53; [2]", "result": 2810, "unit": "nM"}
    ]},
    {"compound": "CC(C)[C@H](CO)Nc1nc(Nc2cc(N)cc(Cl)c2)c2ncn(C(C)C)c2n1", "note": "[Aminopurvalanol A]", "values": [
      {"measurement": "IC50", "setting": "EWS-FLI1", "result": 1830, "unit": "nM"},
      {"measurement": "IC50", "setting": "p53; [2]", "result": 1200, "unit": "nM"}
    ]},
    {"compound": "c1nc2nc(Nc3ccc(N4CCOCC4)cc3)nc(NC3CCCCC3)c2[nH]1", "note": "[Reversine]", "values": [
      {"measurement": "IC50", "setting": "EWS-FLI1", "result": 2420, "unit": "nM"},
      {"measurement": "IC50", "setting": "p53", "result": 2710, "unit": "nM"}
    ]},
    {"compound": "CC(=O)[O][Hg][c]1ccccc1", "note": "[Phenylmericuric Acetate]", "values": [
      {"measurement": "IC50", "setting": "EWS-FLI1", "result": 16, "unit": "nM"},
      {"measurement": "IC50", "setting": "p53; [2]", "result": 25, "unit": "nM"}
    ]},
    {"compound": "COc1cccc2c1C(=O)c1c(O)c3c(c(O)c1C2=O)C[C@@](O)(C(C)=O)C[C@@H]3O[C@H]1C[C@H](N)[C@H](O)[C@H](C)O1", "note": "[Daunorubicin]", "values": [
      {"measurement": "Disruption of EWS-FLI1 binding compared with p53 binding in the parallel assays", "setting": "EWS-FLI1", "result": "disrupt both EWS-FLI1 and p53 binding similarly"},
      {"measurement": "IC50", "setting": "EWS-FLI1", "result": 4480, "unit": "nM"}
    ]},
    {"compound": "CCCCc1oc2ccccc2c1C(=O)c1cc(I)c(OCCN(CC)CC)c(I)c1", "note": "[Amiodarone HCl]", "values": [
      {"measurement": "IC50", "setting": "p53; [2]", "result": 5290, "unit": "nM"}
    ]},
    {"compound": "N.N.[Cl][Pt][Cl]", "note": "[Cisplatin]", "values": [
      {"measurement": "Disruption of EWS-FLI1 binding compared with p53 binding in the parallel assays", "setting": "EWS-FLI1", "result": "disrupt both EWS-FLI1 and p53 binding similarly"},
      {"measurement": "IC50", "setting": "EWS-FLI1", "result": 5390, "unit": "nM"},
      {"measurement": "IC50", "setting": "p53; [2]", "result": 8870, "unit": "nM"}
    ]},
    {"compound": "O=c1c2ccccc2[se]n1-c1ccccc1", "note": "[Ebselen]", "values": [
      {"measurement": "IC50", "setting": "EWS-FLI1", "result": 631, "unit": "nM"},
      {"measurement": "Separation of inhibition of the NR0B1 and UbC reporters", "setting": "NR0B1 promoter", "result": "modulated the NR0B1 and UbC reporters equally"},
      {"measurement": "IC50", "setting": "p53; [2]", "result": "> 10000", "unit": "nM"}
    ]},
    {"compound": "COc1ccc2[nH]c([S+]([O-])Cc3ncc(C)c(OC)c3C)nc2c1", "note": "(stereo not drawn) [Omeprazole]", "values": [
      {"measurement": "IC50", "setting": "EWS-FLI1", "result": 7330, "unit": "nM"}
    ]},
    {"compound": "mithramycin", "values": [
      {"measurement": "Expression of EWS-FLI1 downstream targets", "setting": "[1]", "result": "reduced"},
      {"measurement": "Growth of Ewing sarcoma cells", "setting": "Ewing sarcoma cells", "result": "inhibited"}
    ]}
  ]
}
